122 compounds from a melting point compilation (Tetko et al.) can be followed below.

The melting point is the temperature of the solid-liquid transition. In turn, `COC(=O)c1c(Cl)ccc([N+](=O)[O-])c1N` gave a melting point of 89 to 91 °C. The compound `Nc1cccc(CS(=O)(=O)c2ccccc2)c1` registered a melting point of 132 to 134 °C. The compound `Cc1ccc(-c2nn(Cc3ccccc3)cc2C=O)cc1C` showed a melting point of 79 to 81 °C. In turn, `Oc1ccc2cncnc2c1` gave a melting point of 216 to 218 °C. On to `O=S(CCCl)c1ccccc1` (configuration not stated), for which the melting point lay within 34 to 36 °C.

Consider `Nc1c(I)cccc1C(=O)O`, for which the melting point is 172 to 174 °C.

The compound `CC(C)Oc1ccc(C(=O)O)cn1` registered a melting point of 122 to 124 °C. With `CCOC(=O)c1ccc2c(c1)nc(CCl)n2CC` the figure was 91 to 93 °C; with `Cn1nc(I)c2ncccc21`, 186 to 188 °C; with `Cn1cccc(N)c1=O`, 112 to 114 °C. Compound `Nc1ncn(Cc2ccccc2)n1` returned a melting point of 130 to 132 °C. As for `O=C(O)c1sccc1S(=O)(=O)Nc1ccc(F)cc1`, the melting point is 180 to 182 °C.

`NC(=O)c1cc(N)ccc1F` returned a melting point of 137 to 139 °C. `Cc1cc(NC(=O)Nc2cc(C)nn2C(C)(C)C)n(C(C)(C)C)n1` gave a melting point of 235 to 237 °C. `Nc1cccc(C(=O)O)n1` displayed a melting point of 310 to 312 °C. In turn, `CC1(C)CC(=O)c2cncnc2C1` registered a melting point of 67 to 69 °C. `Nc1cc(N2CCNC2=O)ccc1Cl` returned a melting point of 224 to 226 °C. Turning to `O=C(O)C(=O)Cc1ccc2ccccc2c1`, the melting point fell in the range of 188 to 190 °C. With `N#Cc1cc(Cl)ccc1S(=O)(=O)Cl` the figure was 97 to 99 °C; with `CC(=O)c1ccc(OCC(=O)N(C)C)cc1`, 125 to 127 °C. In turn, `NCc1ccc(C(N)=O)nc1` showed a melting point of 146 to 148 °C. For the compound `Nc1nc(-c2ccccc2)cn1/N=C/c1ccccc1`, the melting point lay within 202 to 204 °C. In turn, `COc1cccc(-c2nc(CC(=O)O)cs2)c1OC` returned a melting point of 156 to 158 °C. Regarding `CCOC(=O)c1c(N)nn2cc[nH]c12`, the melting point is 168 to 170 °C. In the case of `COc1ccc(OCCC(=O)O)cc1`, the melting point lay in the range of 104 to 106 °C.

The compound `COc1ccc2nc(C3CC3)cc(C(=O)O)c2c1` came in with a melting point of 219 to 221 °C. Take `NNC(=O)CCSc1ccc(F)cc1`: the melting point was 98 to 100 °C. With `O=C1CN(c2ccccc2)CCCN1` the figure was 191 to 193 °C; with `COc1ccc(C)cc1N1CC(C(=O)O)CC1=O` (configuration not stated), 171 to 173 °C. Compound `COc1nnc(Cl)c2ccccc12` gave a melting point of 99 to 101 °C. On to `O=C(O)C1CC(O)CN1C(=O)Cc1ccccc1F` (configuration not stated), for which the melting point is 201 to 203 °C.

Regarding `COc1ccc(NC(N)=S)cc1`, the melting point was 208 to 210 °C. `Nc1nnc(-c2ccncc2)[nH]1` had a melting point of 271 to 273 °C. Consider `Cc1ccc(-n2cnnn2)cc1NC(=O)OCC(F)(F)F`, for which the melting point lay within 199 to 201 °C. On to `COc1ccc([N+](=O)[O-])cc1NS(=O)(=O)c1cc(C(=O)O)ccc1Cl`, for which the melting point was in the range of 57 to 59 °C.

For the compound `NC(=O)c1cncc(Cl)n1`, the melting point lay in the range of 166 to 168 °C. In the case of `CNC(=O)c1cc(Oc2cccc(O)c2)ccn1`, the melting point lay within 124 to 126 °C.

For the compound `CNc1ccccc1C#N`, the melting point was in the range of 66 to 68 °C. The compound `COCCCC(N)=NO` displayed a melting point of 84 to 86 °C.

In turn, `O=C(O)C1CCc2ccccc21` (configuration not stated) gave a melting point of 54 to 56 °C. In turn, `CCOC(=O)Cc1nnc(N)s1` gave a melting point of 156 to 158 °C.

The compound `CC1(C)NC(=O)N(CCOc2ccc(N)cc2)C1=O` had a melting point of 147 to 149 °C. With `O=C(Cc1ccc(Br)cc1)Nc1ccccc1C(=O)O`, the melting point is 212 to 214 °C.

Regarding `CC1N=C(S)N(Cc2ccccc2)C1=O` (configuration not stated), the melting point is < 17 °C.

In turn, `COc1ccc(Cc2nnn[nH]2)cc1F` had a melting point of 191 to 193 °C. `O=C(O)CCN1C(=O)C(=Cc2ccc(F)cc2)SC1=S`: the melting point was 135 to 137 °C. With `CC(C)(C)CNC(N)=O` the figure was 148 to 150 °C; with `Cc1ccc(C(=O)Cc2ccccc2)cc1C`, 93 to 95 °C. With `COc1ccc(CNS(C)(=O)=O)cc1` the figure was 89 to 91 °C; with `Cc1noc(N)c1C(=O)O`, 150 to 154 °C; with `O=C(O)c1cc2ccccc2cc1NS(=O)(=O)c1ccc(F)cc1`, 203 to 205 °C.

As to `COC(=O)CNC(=O)Cc1ccc(N)cc1`, the melting point lay within 93 to 95 °C. `CS(=O)(=O)NCC1CCCNC1` (configuration not stated) displayed a melting point of 130 to 132 °C. With `O=C(O)c1ccc(S(=O)(=O)Cl)cc1Br` the figure was 204 to 206 °C. With `COc1cccc(Nc2ccccc2C(=O)O)c1`, the melting point fell in the range of 135 to 137 °C. `COc1ccc(SCCC(=O)O)cc1OC` yielded a melting point of 72 to 74 °C. Take `Cc1sc(N=CN(C)C)c(C#N)c1C`: the melting point lay in the range of 117 to 119 °C.

`CN(C)c1ccc(C(N)=S)cc1` registered a melting point of 117 to 119 °C. Consider `Nc1cc(F)ccc1NC(=O)c1ccccn1`, for which the melting point lay within 101 to 103 °C.

Consider `CC1Oc2ccccc2N(CC(=O)O)C1=O` (configuration not stated), for which the melting point is 146 to 148 °C.

The compound `CNCCNS(=O)(=O)c1ccc(C)cc1` registered a melting point of 84 to 86 °C.

For `CC(C)Oc1ccc(N)cc1C#N`, the melting point was in the range of 39 to 41 °C. Regarding `O=c1[nH]nc(-c2cccs2)o1`, the melting point lay in the range of 116 to 118 °C.

`Cc1ccc(N)c(C)c1S(=O)(=O)NC1CC1`: the melting point lay in the range of 96 to 98 °C.

In the case of `CC(C)c1nc(C=O)c2ccccn12`, the melting point lay in the range of 95 to 97 °C.

For `Nc1ccccc1N1CC(C(F)(F)F)OC1=O` (configuration not stated), the melting point was in the range of 74 to 76 °C.

`CC(C)(C)c1ccc(C=C[N+](=O)[O-])cc1`: the melting point lay in the range of 44 to 46 °C. With `O=C(O)c1c[nH]c2cccc([N+](=O)[O-])c12` the figure was 170 to 172 °C. `O=C(O)c1cccc(-n2cc(Br)cn2)c1` returned a melting point of 195 to 197 °C. With `Cc1cccc(NC(=O)[C@@H]2CCCN2)n1`, the melting point lay in the range of 62 to 64 °C. With `CC(C)CCNS(=O)(=O)c1ccc(Cl)nc1` the figure was 91 to 93 °C; with `COc1ccc(CNc2nnc(S)s2)cc1`, 137 to 139 °C; with `O=C1CCCCC1N1CCS(=O)(=O)CC1` (configuration not stated), 105 to 107 °C. With `O=C(Nc1ccccc1)c1cccc(CCl)c1` the figure was 123 to 125 °C; with `O=C(O)c1cccc(Oc2cccc(Cl)c2)n1`, 96 to 98 °C.

In turn, `Cc1c(Cl)ccc2ccc(=O)[nH]c12` showed a melting point of 269 to 271 °C. The compound `NC(=O)NC1CCCC1` returned a melting point of 192 to 194 °C. As to `O=C(O)c1ccc(Oc2ccc(C(F)(F)F)cn2)cc1`, the melting point lay within 218 to 220 °C. In the case of `O=Cc1nccn1CC(F)(F)F`, the melting point lay in the range of 50 to 52 °C.

In turn, `COc1cc(C(=O)O)cc(Cl)c1OC` came in with a melting point of 191 to 193 °C. In turn, `O=C(O)CCc1nc(-c2ccccc2)no1` gave a melting point of 138 to 140 °C. Compound `O=C(O)CCSCC(=O)Nc1ccc(Br)cc1` registered a melting point of 148 to 150 °C. Compound `Cc1n[nH]c(C(=O)O)c1O` returned a melting point of 184 to 186 °C. In turn, `NC(=O)NCCc1cccs1` returned a melting point of 88 to 98 °C.

In the case of `CNS(=O)(=O)c1ccc(Cl)c(C(F)(F)F)c1`, the melting point fell in the range of 100 to 102 °C. As for `CC(CS(C)(=O)=O)NC1CC1` (configuration not stated), the melting point lay in the range of 39 to 41 °C. In the case of `O=C(CC(F)(F)F)c1ccc(Cl)cc1`, the melting point was 39 to 41 °C.

Turning to `COc1ccc(C2CCN2S(=O)(=O)c2ccc(C)cc2)cc1` (configuration not stated), the melting point was 102 to 104 °C. The compound `CN1CC(=O)Nc2cc(Cl)ccc21` gave a melting point of 181 to 183 °C.

In turn, `O=C1CNc2ccc(S(=O)(=O)N3CCCCC3)cc2N1` gave a melting point of 144 to 146 °C. The compound `N#Cc1cn(-c2ccccc2[N+](=O)[O-])nc1N` registered a melting point of 188 to 190 °C.

`Cc1cccc(OCCNC(=O)C(C)Cl)c1` (configuration not stated) had a melting point of 57 to 59 °C. As to `NCC1CCN(c2ccncc2)CC1`, the melting point lay in the range of 72 to 74 °C. Compound `O=C(CC(=O)Nc1ccc(F)cc1)Nc1ccc(F)cc1` yielded a melting point of 217 to 219 °C. The compound `O=C(O)CN(Cc1cccnc1)c1ccccc1` showed a melting point of 136 to 138 °C. The compound `Clc1ccc(NCc2cccnc2)c(Cl)c1` showed a melting point of 76 to 78 °C. As for `Cc1cc(C(=O)O)c2c(CC(C)(C)C)noc2n1`, the figure is 224 to 226 °C. Compound `Cc1ccc2c(n1)OCCN2` returned a melting point of 109 to 111 °C. Regarding `Cn1c(C(=O)O)ccc1-c1ccc(F)cc1`, the melting point was in the range of 159 to 161 °C. As to `COc1cc(F)c([N+](=O)[O-])cc1F`, the melting point was in the range of 78 to 80 °C.

As for `CC(C)(C)OC(=O)N1CCCC(COCC(=O)O)C1` (configuration not stated), the melting point is 74 to 76 °C. Compound `NNC(=O)C1CCCC1` gave a melting point of 112 to 114 °C. As for `NC1CCN(c2ccccc2Cl)C1=O` (configuration not stated), the figure is 70 to 72 °C.

Compound `Cc1c(C(=O)O)sc2ccc(F)cc12` had a melting point of 289 to 291 °C. Take `Nc1ccc2[nH]c(=O)sc2c1`: the melting point is 221 to 223 °C.

`O=S(=O)(Cl)c1csc(-c2ccc(Br)cc2)n1` displayed a melting point of 116 to 118 °C.

`O=C(O)C=C1CCCCC1` gave a melting point of 90 to 92 °C. With `O=C1NC(=O)C2(CCS(=O)(=O)CC2)N1` the figure was 327 to 329 °C; with `CC(C)C(C(=O)O)N1CCN(C)CC1` (configuration not stated), 195 to 197 °C. As for `O=C(O)C1CCN(S(=O)(=O)c2cccc(C(F)(F)F)c2)CC1`, the figure is 135 to 136 °C; as for `Nc1ccc(S(N)(=O)=O)cc1Br`, 153 to 155 °C. In turn, `C=CCOc1ccc(C(=O)O)cc1OC` had a melting point of 173 to 175 °C. As to `Nc1[nH]ncc1-c1ccccc1Br`, the melting point was 129 to 131 °C. `N#Cc1ccc(Cl)cc1NC1CCOCC1`: the melting point was in the range of 143 to 145 °C. Consider `O=C(O)c1cccnc1SC(F)F`, for which the melting point lay within 184 to 188 °C.

`Cc1cc(C)n(N)c(=O)c1C#N` came in with a melting point of 164 to 166 °C.

With `CNS(=O)(=O)c1ccc(C)c(N)c1`, the melting point was in the range of 83 to 85 °C. `CC(=O)CC(=O)CCN1C(=O)c2ccccc2C1=O` registered a melting point of 104 to 106 °C. `CSc1ccc(C#N)cc1N` yielded a melting point of 42 to 44 °C. `O=C(Cn1cnnn1)Nc1ccccc1C(=O)O`: the melting point lay in the range of 194 to 196 °C. `CC(N)c1ccc(NC(=O)Nc2ccccc2)cc1` (configuration not stated) registered a melting point of 165 to 167 °C. In turn, `O=C(O)CC(O)(c1ccccc1)C1CC1` (configuration not stated) displayed a melting point of 105 to 107 °C.
